Values after ≈ are worked out from the molar mass of the structure shown. “Also recorded” adds a separate entry of the source.
What was measured:
[1] = biological target: T1, aldosterone synthase (CYP11B2) (Homo sapiens, UniProt P19099); test: In vitro inhibition of CYP11B2 (Schizosaccharomyces pombe MB164); assay type: cell-based; settings: inhibitor 100 nM to 5 µM, three to four independent experiments
T1 construct: expressed in transfected cells; host or cells: Schizosaccharomyces pombe strain MB164
T1 sequence (P19099 25-503): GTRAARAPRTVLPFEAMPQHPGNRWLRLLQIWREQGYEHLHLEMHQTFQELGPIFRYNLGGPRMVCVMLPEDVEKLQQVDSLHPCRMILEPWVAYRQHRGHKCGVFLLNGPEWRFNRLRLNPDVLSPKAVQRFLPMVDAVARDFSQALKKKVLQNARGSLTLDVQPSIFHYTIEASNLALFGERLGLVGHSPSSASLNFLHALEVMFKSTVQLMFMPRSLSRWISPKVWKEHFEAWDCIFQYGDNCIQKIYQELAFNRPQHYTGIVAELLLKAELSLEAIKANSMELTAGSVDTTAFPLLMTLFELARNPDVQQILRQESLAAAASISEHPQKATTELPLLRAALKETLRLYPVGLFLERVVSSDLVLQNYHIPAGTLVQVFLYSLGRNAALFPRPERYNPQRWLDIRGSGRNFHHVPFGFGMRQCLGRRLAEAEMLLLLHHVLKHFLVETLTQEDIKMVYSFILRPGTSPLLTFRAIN
Procedure: (§1) For the CYP11B1 assay, 11-deoxycortisol (RSS) was used as substrate, whereas 11-deoxycorticosterone (DOC) was used for the CYP11B2 assay. These non-radioactive steroids were purchased from Sima (Deisenhofen, Germany). Radioactive steroids were obtained from Amersham Pharmacia Biotech (Freiburg, Germany). Two Schizosaccharomyces pombe strains were used, SZ1 expressing CYP11B1 and MB164 expressing CYP11B2. The assays were performed as described previously by Bureik et al.. Exponentially growing fission yeast cells were cultivated by shaking and with good aeration at 30 °C in 500 µL Edinburgh Minimal Medium Glutamate (EMMG) containing supplements as required. Inhibitors were dissolved in ethanol at different concentrations, and equal volumes of ethanolic solutions were used in all cases (including controls). Final concentrations of inhibitors ranged from 100 nM to 5 µM. Cells were preincubated with the respective inhibitor solutions for 15 min prior to the addition of steroid substrates (100 nM DOC or 100 nM RSS, respectively). For detection of steroids, 1% of the total substrate amount was radioactively labeled as [^3H]RSS, [^3H]DOC, or [^14C]DOC. After 4 h (MB164) or 24 h (SZ1) cultures were extracted with chloroform and dried under vacuum. The residues were dissolved in 10 µL chloroform and spotted onto glass-backed silica-coated HPTLC plates (Kieselgel 60 F254, Merck; Darmstadt, Germany). In addition, small amounts of non-radioactive steroids were spotted as references. The HPTLC was developed twice in chloroform/methanol/water (300:20:1, v/v/v) and steroids identified after exposure to Fuji imaging plates and quantitated on a phosphoimager (BAS-2500, Fuji; Stamford, CT, USA).

[2] = biological target: T2, 11β-hydroxylase (CYP11B1) (Homo sapiens, UniProt P15538); test: In vitro inhibition of CYP11B1 (Schizosaccharomyces pombe SZ1); assay type: cell-based; settings: inhibitor 100 nM to 5 µM, three to four independent experiments
T2 construct: expressed in transfected cells; host or cells: Schizosaccharomyces pombe strain SZ1
T2 sequence (P15538 25-503): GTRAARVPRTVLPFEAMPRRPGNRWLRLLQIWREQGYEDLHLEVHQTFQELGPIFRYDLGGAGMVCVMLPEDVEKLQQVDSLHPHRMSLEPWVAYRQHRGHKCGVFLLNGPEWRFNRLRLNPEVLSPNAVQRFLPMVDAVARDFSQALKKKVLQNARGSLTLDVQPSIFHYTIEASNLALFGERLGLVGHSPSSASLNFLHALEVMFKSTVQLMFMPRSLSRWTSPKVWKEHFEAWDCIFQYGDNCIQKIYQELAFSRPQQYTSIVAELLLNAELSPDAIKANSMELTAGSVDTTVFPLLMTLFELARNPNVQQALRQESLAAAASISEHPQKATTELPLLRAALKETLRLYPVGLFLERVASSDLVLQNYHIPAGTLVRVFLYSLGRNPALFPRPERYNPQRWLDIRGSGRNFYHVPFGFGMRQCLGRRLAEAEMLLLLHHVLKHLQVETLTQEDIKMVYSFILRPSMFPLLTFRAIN
Procedure: as §1

[3] = biological target: T3, 17α-hydroxylase/17,20-lyase (CYP17) (Homo sapiens, UniProt P05093); test: In vitro inhibition of 17α-hydroxylase/17,20-lyase; assay type: biochemical; settings: at 2.5 µM
T3 sequence (P05093 1-508): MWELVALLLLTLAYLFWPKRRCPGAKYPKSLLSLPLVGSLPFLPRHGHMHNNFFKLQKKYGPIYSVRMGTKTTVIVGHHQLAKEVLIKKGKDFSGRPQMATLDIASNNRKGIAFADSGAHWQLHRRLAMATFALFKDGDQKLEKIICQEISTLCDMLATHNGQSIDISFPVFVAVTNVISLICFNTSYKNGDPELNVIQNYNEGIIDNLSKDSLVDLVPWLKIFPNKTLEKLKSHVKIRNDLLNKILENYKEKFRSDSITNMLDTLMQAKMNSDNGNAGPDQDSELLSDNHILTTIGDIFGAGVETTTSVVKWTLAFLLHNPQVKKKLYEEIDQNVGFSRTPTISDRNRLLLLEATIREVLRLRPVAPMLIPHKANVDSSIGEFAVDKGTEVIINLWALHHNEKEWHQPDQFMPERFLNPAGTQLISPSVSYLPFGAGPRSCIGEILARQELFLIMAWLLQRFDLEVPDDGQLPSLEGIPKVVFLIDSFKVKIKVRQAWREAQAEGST
Procedure: The assay was performed similar to described methods [29, 52]. […] Microsomal protein was added to start the reaction. […] After the addition of 1 mL EtOAc, the vials were shaken then centrifuged. The organic phase was removed, vortexed with phosphate buffer (250 µL), 1 M aqueous HCl (50 µL), and then dried. Aliquots of 25 µL methanol, containing 250 pmol of fluorocortisol acetate as internal standard, were added to the extracts. The samples (20 µL) were submitted to HPLC (RP-8 column, methanol/water 1:1, v/v) and measured using UV (240 nm).

[4] = tested on: CA98002 (Candida albicans); test: Anti-Candida in vitro assay, CA98002; assay type: cell-based; settings: Candida albicans CA98002, mean of triplicate; read-out: MIC (IC80) CA98002
Procedure: Test fungal strains were obtained from the American Type Culture Collection (ATCC) or were clinical isolates from the Laboratory of Parasitology and Medical Mycology, Centre Hospitalier Universitaire (CHU) of Nantes. The strains were maintained on Sabouraud agar slants and were subcultured 24 h before used. The activity of the target compounds 8a–g and 11a–m was determined by the method previously described. Briefly, molecules were diluted in RPMI 1640 medium supplemented with 0.165 M morpholinopropanesulphonic acid (Sigma-Aldrich, Saint-Quentin Fallavier, France), 2% glucose, and antibiotics. Candida suspensions were prepared in RPMI 1640 medium (Sigma-Aldrich, Saint-Quentin Fallavier, France) adjusted to give a final concentration of 10^3 cells/mL, and a 96-well microplate (Nunc, D. Dutscher, Brumath, France) was seeded with 100 µL. Each concentration of molecules (100 µL) to be tested was added (in triplicate) and plates were incubated at 37 °C for 24 h. The cellular viability was evaluated on the Fluorolite 1000 (Dynatech, France) with an excitation at 550 nm and an emission at 590 nm after a 4 h incubation with 10 µL of Alamar Blue®. […] MIC was expressed as the mean of the triplicate values. KTC and FLC were used as standards.

| CYP11B1 inhibition effect [2] | inhibition at […] [3] [%] | MIC [4] [µg/mL] | Structure (SMILES) | CYP11B2 inhibition effect [1] |
| --- | --- | --- | --- | --- |
| no inhibition | < 5 | 2.75 (≈ 7.1 µM) | O[C@@](Cn1cncn1)(Cn1ccc2ccccc21)c1ccc(Cl)cc1Cl [(+)-(R)-8g] | slight inhibitory effect; also recorded: slight inhibition |
| no inhibition | < 5 | < 0.039 | O[C@](Cn1cncn1)(Cn1ccc2ccccc21)c1ccc(Cl)cc1Cl [(−)-(S)-8g] | no inhibition |

| Structure (SMILES) | CYP11B1 inhibition effect [2] | inhibition at […] [3] [%] | MIC [4] [µg/mL] | CYP11B2 inhibition effect [1] |
| --- | --- | --- | --- | --- |
| OC(Cn1cncn1)(Cn1ccc2ccccc21)c1ccc(Cl)cc1Cl (stereo not drawn) [Compound 8g, 2-(2,4-Dichlorophenyl)-3-(1H-indol-1-yl)-1-(1H-1,2,4-triazol-1-yl)-propan-2-ol] | no inhibitory activity; also recorded: no inhibition | < 10 | < 0.004 | slight inhibitory effect; also recorded: slight inhibition |

— paper PMC7464559, “Synthesis, Optimization, Antifungal Activity, Selectivity, and CYP51 Binding of New 2-Aryl-3-azolyl-1-indolyl-propan-2-ols” (Pharmaceuticals, 2020)
